The supplement of paper PMC10307832

Key:
Experiment in all cases: relative viability (nuclei count vs DMSO), 5 days (fraction); higher = more cells survive
[1] = compound: C/C(=N\NC(=S)N1CCC1)/C2=CC=CC=N2 + CC(=O)c1c(C)c2cnc(Nc3ccc(N4CCNCC4)cn3)nc2n(C2CCCC2)c1=O [Palbociclib] (partner 0.5 µM)
How it was run: (§1)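 The day after seeding in 1536-well plates, lung cancer cell lines were treated by pin tool with a single drug, or with a fixed anchor-drug dose together with five library-drug doses (not always all listed) in √10 steps. After 5 days, a combined fix-and-stain solution (final 0.05% Triton X-100, 1% formaldehyde, 1 ug/ml Hoechst) was added. Nuclei counted on 4× images gave relative viability as treated counts over vehicle counts, reported as the median of duplicate plates.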

[2] = compound: C/C(=N\NC(=S)N1CCC1)/C2=CC=CC=N2 + C[C@@H](Oc1cc(-c2cnn(C3CCNCC3)c2)cnc1N)c1c(Cl)ccc(F)c1Cl [Crizotinib] (partner 1 µM)
How it was run: as §1

[3] = compound: C/C(=N\NC(=S)N1CCC1)/C2=CC=CC=N2 + NC(=O)Nc1cc(-c2cccc(F)c2)sc1C(=O)N[C@H]1CCCNC1 [AZD7762] (partner 0.2 µM)
How it was run: as §1

[4] = compound: C/C(=N\NC(=S)N1CCC1)/C2=CC=CC=N2 + O=C(CCCCCCC(=O)Nc1ccccc1)NO [Vorinostat] (partner 1 µM)
How it was run: as §1

Cell Line | relative viability ([1]; first compound 0.05 µM) | relative viability ([1]; first compound 0.1581 µM) | relative viability ([1]; first compound 0.5 µM) | relative viability ([1]; first compound 1.581 µM) | relative viability ([1]; first compound 5 µM) | relative viability ([2]; first compound 0.05 µM) | relative viability ([2]; first compound 0.1581 µM) | relative viability ([2]; first compound 0.5 µM) | relative viability ([2]; first compound 1.581 µM) | relative viability ([2]; first compound 5 µM) | relative viability ([3]; first compound 0.05 µM) | relative viability ([3]; first compound 0.1581 µM) | relative viability ([3]; first compound 0.5 µM) | relative viability ([3]; first compound 1.581 µM) | relative viability ([3]; first compound 5 µM) | relative viability ([4]; first compound 0.05 µM) | relative viability ([4]; first compound 0.1581 µM) | relative viability ([4]; first compound 0.5 µM) | relative viability ([4]; first compound 1.581 µM) | relative viability ([4]; first compound 5 µM)
HOP-62 | 0.0827 | 0.234 | 0.0724 | 0.107 | 0.0858 | 0.218 | 0.626 | 0.0574 | 0.0819 | 0.0635 | 0.0756 | 0.0789 | 0.0592 | 0.0773 | 0.111 | 0.0518 | 0.0592 | 0.0621 | 0.0833 | 0.0796
LC-2-ad | 0.224 | 0.196 | 0.192 | 0.172 | 0.202 | 0.226 | 0.207 | 0.198 | 0.171 | 0.143 | 0.212 | 0.202 | 0.182 | 0.165 | 0.163 | 0.197 | 0.172 | 0.191 | 0.185 | 0.17
LCLC-97TM1 | 0.0948 | 0.223 | 0.0874 | 0.0867 | 0.0722 | 0.155 | 0.307 | 0.103 | 0.0898 | 0.119 | 0.0761 | 0.0694 | 0.0641 | 0.0548 | 0.0577 | 0.071 | 0.0753 | 0.0572 | 0.0546 | 0.0434
LCLC-103H | 0.335 | 0.464 | 0.309 | 0.289 | 0.287 | 0.838 | 0.917 | 0.321 | 0.335 | 0.3 | 0.272 | 0.219 | 0.27 | 0.185 | 0.262 | 0.344 | 0.321 | 0.286 | 0.254 | 0.296
LK-2 | 0.0858 | 0.0843 | 0.0965 | 0.0618 | 0.112 | 0.197 | 0.255 | 0.266 | 0.226 | 0.215 | 0.0945 | 0.0875 | 0.049 | 0.086 | 0.0796 | 0.117 | 0.143 | 0.145 | 0.169 | 0.127
LOU-NH91 | 0.486 | 0.526 | 0.496 | 0.388 | 0.389 | 0.515 | 0.471 | 0.476 | 0.45 | 0.472 | 0.46 | 0.548 | 0.479 | 0.294 | 0.428 | 0.577 | 0.588 | 0.566 | 0.388 | 0.374
LU99A | 0.14 | 0.312 | 0.129 | 0.127 | 0.121 | 0.23 | 0.0986 | 0.168 | 0.133 | 0.143 | 0.153 | 0.12 | 0.125 | 0.107 | 0.14 | 0.147 | 0.152 | 0.137 | 0.131 | 0.161
LXF-289 | 0.252 | 0.6 | 0.189 | 0.143 | 0.13 | 0.417 | 0.287 | 0.24 | 0.168 | 0.121 | 0.212 | 0.266 | 0.218 | 0.124 | 0.116 | 0.22 | 0.185 | 0.188 | 0.151 | 0.104
NCI-H23 | 0.143 | 0.174 | 0.168 | 0.133 | 0.164 | 0.134 | 0.15 | 0.129 | 0.105 | 0.114 | 0.0952 | 0.131 | 0.124 | 0.096 | 0.131 | 0.15 | 0.11 | 0.124 | 0.0929 | 0.102
NCI-H322M | 0.345 | 0.382 | 0.488 | 0.379 | 0.439 | 0.312 | 0.988 | 0.213 | 0.247 | 0.254 | 0.316 | 0.333 | 0.381 | 0.37 | 0.414 | 0.337 | 0.345 | 0.358 | 0.465 | 0.438
NCI-H358 | 0.0943 | 0.103 | 0.106 | 0.07 | 0.0834 | 0.13 | 0.157 | 0.14 | 0.102 | 0.144 | 0.174 | 0.217 | 0.16 | 0.15 | 0.18 | 0.0785 | 0.0651 | 0.0611 | 0.0639 | 0.0677
NCI-H441 | 0.13 | 0.112 | 0.124 | 0.0967 | 0.105 | 0.241 | 0.175 | 0.134 | 0.11 | 0.128 | 0.264 | 0.178 | 0.173 | 0.144 | 0.153 | 0.16 | 0.19 | 0.153 | 0.111 | 0.127
NCI-H460 | 0.018 | 0.0146 | 0.0188 | 0.0169 | 0.0139 | 0.0177 | 0.0116 | 0.014 | 0.0184 | 0.0064 | 0.0608 | 0.0607 | 0.0479 | 0.0377 | 0.0347 | 0.0355 | 0.029 | 0.0302 | 0.03 | 0.0178
